Experimental data as given in article PMC5365645, “Preclinical Pharmacokinetics and Pharmacodynamic Target of SCY-078, a First-in-Class Orally Active Antifungal Glucan Synthesis Inhibitor, in Murine Models of Disseminated Candidiasis” (Antimicrobial Agents and Chemotherapy, 2017).
Converted amounts (≈) assume the structure as drawn. “And” between values parts separate entries of the source, which are not always exact repeats. Equal values may be shown once.

Legend:
in vitro = in vitro ADME; settings: human, Caco-2
Description: Caco-2 cell monolayers were used to assess the in vitro absorptive permeability of SCY-078 as a predictor of absorption across the gut following oral delivery. The mean apparent permeability for 5 μM SCY-078 in the apical-to-basolateral direction was 8.9 ± 0.78 ×10^−6 cm/s (89 ± 7.8 nm/s), indicating good oral absorption since in this assay permeability values of >10^−6 cm/s are considered predictive of good absorption after oral administration ([9]).
Caco2 cells (ATCC CRL-2102) were cultured in Dulbecco modified Eagle medium with the dipeptide form of L-glutamine (GlutaMAX), 10% (vol/vol) fetal bovine serum, and 1% (vol/vol) penicillin-streptomycin at 10,000 U/ml in a 75-ml flask at 37°C in a humidified atmosphere of 5% CO2. […] On the day of the assay, the cell monolayers were rinsed with transport medium (Hanks balanced salt solution with 25 mM glucose and 25 mM HEPES [MediaTech Corning, Tewksbury, MA]), and the absorptive permeation of SCY-078 was evaluated by measuring the flux from the apical to the basolateral compartments. […] The apparent permeability coefficient (Papp; cm/s) was calculated as follows: Papp = 1/A·C0 (dQ/dt), where dQ/dt is the rate of drug appearance in the basolateral compartment (μmol/s), C0 is the initial drug concentration in the donor compartment (μM), and A is the surface area of the monolayer (cm^2). […]

in vivo [1] = test: in vivo; parameters: species or system mice, rats, and dogs
Description: The pharmacokinetics and bioavailability of SCY-078 were evaluated in uninfected mouse, rat, and dog after p.o. and i.v. administration. The in vivo phases of the PK studies were performed at either […] (Waltham, MA) or MPI Research (Mattawan, MI) after an Institutional Animal Care and Use Committee (IACUC) review. […] and MPI Research are Association for Assessment and Accreditation of Laboratory Animal Care International (AAALAC)-approved facilities. […] The peak concentration (Cmax), the time to maximum concentration (Tmax), the half-life, and the AUC were determined from composite mean plasma concentration-time data for rodents and individual plasma concentration-time data for dogs. All doses and plasma concentrations of SCY-078 are presented as free base. […] Male and female Wistar Han rats (n = 3/sex/group/time point) weighing 0.329 to 0.398 kg (males) or 0.187 to 0.244 kg (females) received a single 5-mg/kg dose of SCY-078 as an i.v. injection in the lateral tail administered over 5 min or an oral dose of 20 mg/kg as described above. Blood specimens were collected from four animals/time point/group using a sparse sampling strategy via the sublingual vein at time intervals to 72 h postdosing and processed as described above. Treatment naive male and female beagle dogs (n = 3/sex/group/time point) weighing 8 to 12 kg (males) or 6 to 10 kg (females) were given a single 5-mg/kg dose of SCY-078 as an i.v. injection over 5 min or an oral dose of 20 mg/kg as described above. Blood specimens were collected from the jugular vein at various time intervals to 72 h postdosing and processed as described above.

[2] = system: C. parapsilosis isolate CP 20519.069; parameters: method as in PMID 25512406; settings: cited from earlier work
[3] = parameters: method as in ref 5 = [5]; 5. Trucksis M , Garrett G , Bautmans A , Heirman I , Laethem M , Comisar WA , Maganti L , Bi S , Iwamoto M , O'Mara E , Wagner JA , Depre M , de Hoon J 2011 A phase I multiple-rising dose study evalua; settings: single- and multiple-dose phase 1 and 2 clinical studies ref 5; cited from earlier work
in vivo [4] = settings: female, CD-1, mouse; for AUC(0-inf) / AUC(0-t) / half-life: kidney; for AUC(0-inf) / AUC(0-t) / half-life / Kp: po; for Kp at 12 h / Kp: kidney/plasma; for Kp at 12 h: oral
Description: Female CD-1 mice (n = 5/sex/time point/group) weighing approximately 25 g were administered SCY-078 by oral gavage either once daily or as multiple twice-per-day (Q12h) treatments, with individual doses ranging between 3 and 100 mg/kg (6 to 150 mg/kg/day). Mice also received a single 1-mg/ml i.v. dose of SCY-078. Plasma specimens were collected prior to dosing and at 0.25, 0.5, 1, 2, 4, 6, 9, 12, 18, 24, 36, 48, and 60 h after the single i.v. dose and at the same time points from 1 h postdose onward following oral dose 13 on day 7 of treatment. On the first day of oral treatment, plasma specimens were collected immediately before each of the two doses and 1, 2, 4, 6, 9, and 12 h postdosing. […] Kidney tissues were collected at 2, 4, 12, 24, 36, 48, and 60 h after oral dose 13 on treatment day 7, blotted dry, and stored at approximately −80°C until analysis.
On the day of analysis, either treatment-naive (drug-free) kidney tissue or freshly thawed tissue samples from PK studies were weighed and homogenized in 3 volumes of phosphate-buffered saline. The density of kidney tissue used for the determination of volume was assumed to be 1.0 g/ml.
Whole-kidney tissue samples were homogenized in parallel by means of a Precellys 24 bead mill homogenizer (Bertin Technologies, Montigny le Bretonneux, France) using 2-ml Precellys tubes containing 1.4-mm-diameter ceramic beads (CK14) and a single 15-s cycle of 5,500 rpm. Parallel bead homogenization increased throughput and avoided potential cross-contamination of samples since each sample was wholly contained and homogenized within its own sealed vial with no direct contact between the homogenizing instrument or other samples.
Mouse plasma (50 μl) or kidney tissue homogenate (50 μl) was treated with 5 volumes of acetonitrile containing 50 ng of deuterium (d9)-labeled SCY-078 internal standard/ml to precipitate proteins. Treated samples were mixed on a 96-well plate shaker for ∼30 min and then centrifuged at approximately 4,000 × g and 15°C for 15 min. Supernatants were transferred to fresh 96-well plates for analysis by LC-MS/MS.

[5] = Immediate treatment murine model of disseminated candidiasis; settings: DBA/2N, mouse, plasma, po
C. albicans MY1055 = test: Single delayed-dose treatment model of disseminated candidiasis; settings: single dose 16 h after infection, tissue burden 96 h after treatment, regression analysis
Description: Next, a single-dose treatment with SCY-078 was administered. The target endpoint for efficacy in this model was defined as a static effect on the tissue burden measured 96 h after treatment.
For the single delayed-dose treatment model, a single dose of SCY-078 was administered 16 h after infection. The target endpoint for efficacy in this model was a static effect on the tissue burden measured at 96 h posttreatment.

C. albicans = test: Fractionated delayed-dose treatment model of disseminated candidiasis
Description: The fractionated delayed treatment model was used to compare the efficacy of SCY-078 when administered as divided doses of either two half doses or four quarter doses, relative to the outcome of a single dose. The total doses were 12.5, 25, and 50 mg/kg delivered by bolus intraperitoneal injection. Divided doses were administered at either 0 and 48 h or at 0, 24, 48, and 72 h relative to the single dose. […] Caspofungin and fluconazole were not evaluated in this model.
In the fractionated delayed-dose treatment model, SCY-078 was administered as divided doses of either two half doses or four quarter doses relative to the single dose. The total doses were 12.5, 25, and 50 mg/kg administered as a suspension in a “fit-for-purpose” formulation. Divided doses were administered at either 0 or 48 h or at 0, 24, 48, and 72 h relative to the single dose for the half and quarter doses, respectively. Caspofungin and fluconazole were not evaluated in this model.

[6] = female (mouse), both (rat, dog), CD-1 (mouse), Wistar Han (rat), beagle (dog), dog, po

Question: With `CC(C)[C@@H](C)[C@@]1(C)CC[C@]2(C)[C@H]3CC[C@@H]4[C@@]5(COC[C@@]4(C)[C@@H](OC[C@](C)(N)C(C)(C)C)[C@H](n4ncnc4-c4ccncc4)C5)C3=CC[C@@]2(C)[C@@H]1C(=O)O` [SCY-078, (1S,4aR,6aS,7R,8R,10aR,10bR,12aR,14R,15R)-15-[[(2R)-2-amino-2,3,3-trimethylbutyl]oxy]-8-[(1R)-1,2-dimethylpropyl]-14-[5-(4-pyridinyl)-1H-1,2,4-triazol-1-yl]-1,6,6a,7,8,9,10,10a,10b,11,12,12a-dodecahydro-1,6a,8,10a-tetramethyl-4H-1,4a-propano-2H-phenanthro[1,2-c]pyran-7-carboxylic acid] as the compound, how does the Papp at 2 h, 5 µM (in vitro) read?
Answer: ~89 nm/s

Question: What about the Papp at 2 h, 5 μM (in vitro) of the same compound?
Answer: 89 ± 7.8 nm/s

Question: What about the Cmax (in vivo [1]; CD-1 (mouse), Wistar Han (rat), beagle (dog), dog, po) of the same compound?
Answer: ~1 µg/mL

Question: What about the half-life (in vivo [1]; both sexes, CD-1, Wistar Han, mouse, rat, po) of the same compound?
Answer: 7.8 to 9.1 h

Question: What about the half-life (in vivo [1]; female (mouse), both (rat), CD-1 (mouse), Wistar Han (rat), iv) of the same compound?
Answer: 5.5 to 8.7 h

Question: And the Vd (in vivo [1]; female (mouse), both (rat, dog), CD-1 (mouse), Wistar Han (rat), beagle (dog), dog, iv)?
Answer: 4.7 to 5.3 L/kg

Question: And the “Dose normalized AUC0–12 across species” value (in vivo [1]; [6])?
Answer: 0.5-0.8 μg/ml·h/mg/kg dose

Question: And the Tmax (in vivo [1]; [6])?
Answer: 4 to 6 h

Question: And the MIC [2]?
Answer: 0.25 mg/L (≈ 0.342 µM)

Question: And the Tolerability [3]?
Answer: well tolerated

Question: What about the AUC(0-inf) (in vivo [4]; 6.25 mg/kg) of the same compound?
Answer: 198 µg·h/mL

Question: And the AUC(0-t) (in vivo [4]; 6.25 mg/kg)?
Answer: 118 µg·h/mL

Question: What about the half-life (in vivo [4]; 6.25 mg/kg) of the same compound?
Answer: 9.2 h

Question: What about the AUC(0-inf) (in vivo [4]; 12 mg/kg) of the same compound?
Answer: 700 µg·h/mL

Question: And the AUC(0-t) (in vivo [4]; 12 mg/kg)?
Answer: 346 µg·h/mL

Question: What about the half-life (in vivo [4]; 12 mg/kg) of the same compound?
Answer: 8.9 h

Question: And the Kp at 12 h (in vivo [4]; 6.25 mg/kg)?
Answer: 19

Question: And the Kp at 12 h (in vivo [4]; 12 mg/kg)?
Answer: 25.7

Question: And the Kp (in vivo [4]; 6.25 mg/kg)?
Answer: 21.5

Question: And the Kp (in vivo [4]; 12 mg/kg)?
Answer: 23.1

Question: What about the AUC(0-t) ([5]; 6.25 mg/kg, Plasma AUC0–24, Study A, 6.25 mg/kg p.o. BID, after dose 13 day 7) of the same compound?
Answer: 6190 ng·h/mL and 8.48 µM·h

Question: And the AUC(0-t) ([5]; 6.25 mg/kg, Plasma AUC0–24, Study B, 6.25 mg/kg p.o. BID, after dose 13 day 7)?
Answer: 3270 ng·h/mL and 4.48 µM·h

Question: And the AUC(0-t) ([5]; 6.25 mg/kg, Plasma AUC0–24, Study C, 6.25 mg/kg p.o. BID, after dose 13 day 7)?
Answer: 11000 ng·h/mL and 15.1 µM·h

Question: What about the AUC(0-t) ([5]; 12.5 mg/kg, Plasma AUC0–24, Study A, 12.5 mg/kg p.o. BID, after dose 13 day 7) of the same compound?
Answer: 19700 ng·h/mL and 27 µM·h

Question: What about the AUC(0-t) ([5]; 12.5 mg/kg, Plasma AUC0–24, Study B, 12.5 mg/kg p.o. BID, after dose 13 day 7) of the same compound?
Answer: 16200 ng·h/mL and 22.2 µM·h

Question: What about the AUC(0-t) ([5]; Plasma AUC0–24, Study A, Efficacious: projected efficacious exposure assuming linearity) of the same compound?
Answer: 12900 ng·h/mL and 17.7 µM·h

Question: What about the AUC(0-t) ([5]; Plasma AUC0–24, Study B, Efficacious: projected efficacious exposure assuming linearity) of the same compound?
Answer: 9710 ng·h/mL and 13.3 µM·h

Question: And the “Dose achieving stasis endpoint” value (C. albicans MY1055)?
Answer: 10.28 mg/kg

Question: What about the ED99 (C. albicans; 2 doses) of the same compound?
Answer: 9.83 mg/kg

Question: And the ED99 (C. albicans; 4 doses)?
Answer: 6.93 mg/kg

Question: And the “90% effective dose (ED90)” value (C. albicans; divided, half doses (0 and 48 h))?
Answer: 4.40 mg/kg

Question: What about the “90% effective dose (ED90)” value (C. albicans; divided, quarter doses (0, 24, 48, 72 h)) of the same compound?
Answer: 4.25 mg/kg

Question: What about the “90% effective dose (ED90)” value (C. albicans; single dose) of the same compound?
Answer: 5.02 mg/kg

Question: And the ED99 (C. albicans; single dose)?
Answer: 13.43 mg/kg
